This is an account of results in patent publication US12354130B2, “Combination therapies” (Genentech, Inc., priority 2012, dated 2025).

For series [1] the following is noted: cited from earlier work.
For series [2] the following is noted: cited from earlier work. The source holds these as a separate data set.
Series [3] concerns unresectable or metastatic melanoma that is BRAFV600E mutation-positive. The following applies: cited from earlier work.
For series [4], the system named is patients with BRAF^V600 mutation-positive, unresectable locally advanced or metastatic melanoma.
Source text: This multicenter study has 2 stages: a dose-escalation stage and a cohort-expansion stage.
Key inclusion criteria include the presence of the V600E mutation in melanoma tumor tissue using the Cobas® 4800 BRAF V600 mutation test, measurable disease per Response Evaluation Criteria in Solid Tumors (RECIST) v1.1, ECOG PS of ≤1, and adequate hematologic and end organ function as assessed through key laboratory measures. Patients were excluded if they had: ocular pathology or risk factors that predisposes to retinal vein occlusion; QTc>450 ms; or active CNS metastasis. Patients treated with stereotactic radiation therapy or surgery were eligible if stable for >3 weeks prior to treatment.
Each treatment cycle was 28 days.
Dose-escalation used the standard 3+3 design and proceeded in increments, taking into account the safety and tolerability of the combination.
Eligible patients had BRAF^V600-mutated unresectable or metastatic melanoma, and ECOG PS 0-1. Patients were either naïve to vemurafenib or had disease progression on vemurafenib. The study consisted of dose-escalation and expansion stages. […] Primary endpoints were maximum tolerated dose (MTD), dose-limiting toxicity (DLT) of both drugs, safety, and PK.
Where [5] appears, read: compared with dacarbazine (Chapman et al. 2011).
The mark [6] stands for this setting: during combination treatment, as of 6 Jul. 2012.

The structures appear in SMILES notation. Like-named read-outs stand apart in the source and are kept apart here.

As to `O=C(c1ccc(F)c(F)c1Nc1ccc(I)cc1F)N1CC(O)([C@@H]2CCCCN2)C1` [GDC-0973, [3,4-difluoro-2-[(2-fluoro-4-iodophenyl)amino]phenyl][3-hydroxy-3-[(2S)-2-piperidinyl]-1-azetidinyl]methanone], in series [1] (21/7 schedule), the “single-agent MTD” value is reported as 60 mg.
On to `CCCS(=O)(=O)Nc1ccc(F)c(C(=O)c2c[nH]c3ncc(-c4ccc(Cl)cc4)cc23)c1F` [vemurafenib, propane-1-sulfonic acid {3-[5-(4-chlorophenyl)-1H-pyrrolo[2,3-b]pyridine-3-carbonyl]-2,4-difluoro-phenyl}-amide], for which, in series [2], the “dissolution rate of the amorphous form as compared to the crystalline form” value is reported as “improved dissolution rate” and the “solubility in water of the amorphous form as compared with the crystalline form” value is “greater solubility in water”. Further, the “single-agent MTD” value in series [1] (in vivo) is listed as 960 mg BID. Also, in series [3] (Flaherty 2010, Chapman 2011, Sosman 2012), the response rates entry is given as “greater than 50%”. Besides, in series [3] (setting [5]), the “decrease in the risk of disease progression or death” value was 74% and the “reduction in the risk of death” value is 63%. For the same compound, the dose-limiting toxicity event result in series [4] (cohort 1 (vemurafenib 720 mg BID+GDC-0973 60 mg QD 14/14), led to discontinuation of vemurafenib) was “Grade 3 QT prolongation”. The dose-limiting toxicity event result in series [4] (cohort 1D) was “Grade 3 arthralgia”. In series [4] (setting [6]), the “discontinuation of the drug because of QT interval prolongation” value amounted to 1 patient, the “primary dose reduction of the drug because of LFT abnormality” value amounted to 1 patient, the “primary dose reduction of the drug because of central serous retinopathy” value was determined as 1 patient and the “primary dose reduction of the drug because of rash” value amounted to 1 patient. In addition, in series [4] (setting [6]), the “temporary interruption of the drug because of arthralgia” value stood at 3 patients, the “temporary interruption of the drug because of liver function test (LFT) abnormalities” value stood at 3 patients and the “temporary interruption of the drug because of rash” value is reported as 8 patients.
